The text below walks through data of PubChem BioAssay AID330 (DTP/NCI, 2004).

Molecules are shown by their SMILES. Several values for one entry are separate records, joined by “and”; a condition that tells them apart may be missing. Equal entries are not always repeated. Toxic doses and inconclusive results are not listed.

In the test the test system is P388 leukemia ip, CD2F1 mice, survival T/C. The experiment in a line: NCI In Vivo Anticancer Drug Screen. Data for tumor model P388 Leukemia (intraperitoneal) in CD2F1 (CDF1) mice. The following applies: endpoint: median survival time, higher = longer survival. The method, boiled down: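 Mice carrying the transplanted tumor received test compound or vehicle. Survival was recorded in each group, and the value is the treated-group measurement divided by that of the vehicle-treated control group.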

[1] abbreviates: dose: 50.0 mg/kg/injection, schedule: Q01DX009 (ip), vehicle: Klucel (hydroxypropylcellulose) (HPC).
Setting [2] is: dose: 100.0 mg/kg/injection, schedule: Q01DX009 (ip), vehicle: Klucel (hydroxypropylcellulose) (HPC).
[3] abbreviates: dose: 200.0 mg/kg/injection, schedule: Q01DX009 (ip), vehicle: Klucel (hydroxypropylcellulose) (HPC).
Where [4] appears, read: dose: 25.0 mg/kg/injection, schedule: Q01DX009 (ip), vehicle: saline.
[5] abbreviates: dose: 50.0 mg/kg/injection, schedule: Q01DX009 (ip), vehicle: saline.
[6] abbreviates: dose: 100.0 mg/kg/injection, schedule: Q01DX009 (ip), vehicle: saline.
Where [7] appears, read: dose: 200.0 mg/kg/injection, schedule: Q01DX009 (ip), vehicle: saline.
[8] abbreviates: dose: 50.0 mg/kg/injection, schedule: Q01DX005 (ip), vehicle: saline with Tween-80.
Setting [9] is: dose: 100.0 mg/kg/injection, schedule: Q01DX005 (ip), vehicle: saline with Tween-80.

With `CNC(=S)Sc1c(Cl)c(Cl)c(Cl)c(Cl)c1Cl`, the T/C under setting [1] was 108 % of control, the T/C under setting [2] is 108 % of control and the T/C under setting [3] was 99 % of control.

As to `Cc1cc(C)c(SSc2nnnn2C)c(C)c1`, the T/C was 100 % of control under setting [1] and 90 % of control under setting [2].

Take `CCN(CC)CCNc1ccc(C)c2sc3ccc(OC)cc3c(=O)c12`: the T/C runs as follows: (dose: 25.0 mg/kg/injection, schedule: Q01DX009 (ip), vehicle: saline with Tween-80) 115 % of control; (dose: 50.0 mg/kg/injection, schedule: Q01DX009 (ip), vehicle: saline with Tween-80) 115 % of control and 90 % of control.

Consider `CCC(C)C1NC(=O)C2CCCN2C(=O)C(CC2CO2)OC(=O)CCNC(=O)C(C)N(C)C(=O)C(C(C)C)N(C)C1=O` (configuration not stated), for which the T/C is, setting by setting: (dose: 1.56 mg/kg/injection, schedule: Q01DX005 (ip), vehicle: water) 100 % of control; (dose: 3.12 mg/kg/injection, schedule: Q01DX005 (ip), vehicle: water) 109 % of control.

On to `Cc1cc(C)c(S(=O)(=O)n2ccnc2)c(C)c1`, for which the T/C was 111 % of control under setting [4], 97 % of control under setting [5], 103 % of control under setting [6] and 106 % of control under setting [7].

For `O=c1[nH][nH]c(=O)c2c1CCCC2`, the T/C is 107 % of control under setting [4], 95 % of control under setting [5], 100 % of control under setting [6] and 101 % of control under setting [7].

Consider `COc1ccc(C(SCC(N)C(=O)O)(c2ccccc2)c2ccccc2)cc1` (configuration not stated), for which the T/C (dose: 66.0 mg/kg/injection, schedule: Q04DX003 (ip), vehicle: Klucel (hydroxypropylcellulose) (HPC)) is 105 % of control and the T/C (dose: 100.0 mg/kg/injection, schedule: Q04DX003 (ip), vehicle: Klucel (hydroxypropylcellulose) (HPC)) was 150 % of control.

Consider `CC(=O)NCC[N+](C)(C)C`, for which the T/C was 100 % of control (dose: 12.5 mg/kg/injection, schedule: Q01DX009 (ip), vehicle: saline); 108 % of control under setting [4]; 99 % of control under setting [5].

Take `CC1CCC2CC(=O)NC(=O)CC12` (configuration not stated): the T/C (dose: 6.25 mg/kg/injection, schedule: Q04DX003 (ip), vehicle: saline with Tween-80) is 100 % of control; the T/C (dose: 12.5 mg/kg/injection, schedule: Q04DX003 (ip), vehicle: saline with Tween-80) is 100 % of control; the T/C (dose: 25.0 mg/kg/injection, schedule: Q04DX003 (ip), vehicle: saline with Tween-80) was 104 % of control.

Turning to `CCCCNC(=O)CC(=O)NCCCC`, the T/C is, setting by setting: (dose: 25.0 mg/kg/injection, schedule: Q01DX005 (ip), vehicle: Klucel (hydroxypropylcellulose) (HPC)) 99 % of control; (dose: 50.0 mg/kg/injection, schedule: Q01DX005 (ip), vehicle: Klucel (hydroxypropylcellulose) (HPC)) 100 % of control; (dose: 100.0 mg/kg/injection, schedule: Q01DX005 (ip), vehicle: Klucel (hydroxypropylcellulose) (HPC)) 99 % of control; (dose: 200.0 mg/kg/injection, schedule: Q01DX005 (ip), vehicle: Klucel (hydroxypropylcellulose) (HPC)) 100 % of control.

As for `Fc1cccc(Cl)c1C(Nc1nccs1)Nc1nccs1`, the T/C reads like this: (dose: 60.0 mg/kg/injection, schedule: Q01DX005 (ip), vehicle: Klucel (hydroxypropylcellulose) (HPC)) 107 % of control; (dose: 120.0 mg/kg/injection, schedule: Q01DX005 (ip), vehicle: Klucel (hydroxypropylcellulose) (HPC)) 103 % of control; (dose: 240.0 mg/kg/injection, schedule: Q01DX005 (ip), vehicle: Klucel (hydroxypropylcellulose) (HPC)) 104 % of control.

On to `OC(c1cc(-c2ccccc2)nc2c1ccc1ccccc12)C1CCCCN1` (configuration not stated), for which the T/C runs as follows: (dose: 12.5 mg/kg/injection, schedule: Q01DX005 (ip), vehicle: saline with Tween-80) 101 % of control; (dose: 25.0 mg/kg/injection, schedule: Q01DX005 (ip), vehicle: saline with Tween-80) 97 % of control; under setting [8], 100 % of control; under setting [9], 100 % of control; (dose: 200.0 mg/kg/injection, schedule: Q01DX005 (ip), vehicle: saline with Tween-80) 107 % of control.

Turning to `N=c1c(C(N)=O)cnc2n1CCCCC2`, the T/C by setting is: (dose: 25.0 mg/kg/injection, schedule: Q04DX003 (ip), vehicle: saline) 100 % of control; (dose: 50.0 mg/kg/injection, schedule: Q04DX003 (ip), vehicle: saline) 100 % of control; (dose: 100.0 mg/kg/injection, schedule: Q04DX003 (ip), vehicle: saline) 98 % of control.

Regarding `CC1=NOC(=O)/C1=C/c1ccccc1C`, the T/C was 104 % of control under setting [8] and 104 % of control under setting [9].

Consider `C=Cn1cc[n+](CC(=O)OC2CCC3C4CCC5=CC(=O)CCC5(C)C4CCC23C)c1` (configuration not stated), for which the T/C (dose: 3.75 mg/kg/injection, schedule: Q01DX005 (ip), vehicle: Klucel (hydroxypropylcellulose) (HPC)) is 97 % of control and the T/C (dose: 7.5 mg/kg/injection, schedule: Q01DX005 (ip), vehicle: Klucel (hydroxypropylcellulose) (HPC)) is 96 % of control.

Take `O=C1NCCN1C(=O)Nc1ccc(Cl)c(Cl)c1`: the T/C under setting [1] was 116 % of control, the T/C under setting [2] was 108 % of control and the T/C under setting [3] is 110 % of control.

On to `Cn1c(=O)c2nc(-c3ccccn3)cnc2n(C)c1=O`, for which the T/C is 116 % of control (dose: 25.0 mg/kg/injection, schedule: Q01DX001 (ip), vehicle: Klucel (hydroxypropylcellulose) (HPC)); 106 % of control (dose: 50.0 mg/kg/injection, schedule: Q01DX001 (ip), vehicle: Klucel (hydroxypropylcellulose) (HPC)); 100 % of control and 122 % of control and 92 % of control (dose: 100.0 mg/kg/injection, schedule: Q01DX001 (ip), vehicle: Klucel (hydroxypropylcellulose) (HPC)); 95 % of control (2×) and 96 % of control (dose: 200.0 mg/kg/injection, schedule: Q01DX001 (ip), vehicle: Klucel (hydroxypropylcellulose) (HPC)); 94 % of control and 95 % of control (dose: 400.0 mg/kg/injection, schedule: Q01DX001 (ip), vehicle: Klucel (hydroxypropylcellulose) (HPC)).
